# Source: publication doi:10.1101/144204v1, “On the use of the experimentally determined enzyme inhibition constant as a measure of absolute binding affinity” (biorxiv, 2017)
# Counter-ions that a name gives are not always drawn.
# Biological target: T1, eeAChE (Electrophorus electricus acetylcholinesterase) (Electrophorus electricus, UniProt O42275)
# T1 construct: gene ache; construct details not given
# Assay: Ellman assay (ATCh/DTNB, […] nm), Lineweaver-Burk
# Assay type: biochemical
# T1 sequence (O42275 24-633): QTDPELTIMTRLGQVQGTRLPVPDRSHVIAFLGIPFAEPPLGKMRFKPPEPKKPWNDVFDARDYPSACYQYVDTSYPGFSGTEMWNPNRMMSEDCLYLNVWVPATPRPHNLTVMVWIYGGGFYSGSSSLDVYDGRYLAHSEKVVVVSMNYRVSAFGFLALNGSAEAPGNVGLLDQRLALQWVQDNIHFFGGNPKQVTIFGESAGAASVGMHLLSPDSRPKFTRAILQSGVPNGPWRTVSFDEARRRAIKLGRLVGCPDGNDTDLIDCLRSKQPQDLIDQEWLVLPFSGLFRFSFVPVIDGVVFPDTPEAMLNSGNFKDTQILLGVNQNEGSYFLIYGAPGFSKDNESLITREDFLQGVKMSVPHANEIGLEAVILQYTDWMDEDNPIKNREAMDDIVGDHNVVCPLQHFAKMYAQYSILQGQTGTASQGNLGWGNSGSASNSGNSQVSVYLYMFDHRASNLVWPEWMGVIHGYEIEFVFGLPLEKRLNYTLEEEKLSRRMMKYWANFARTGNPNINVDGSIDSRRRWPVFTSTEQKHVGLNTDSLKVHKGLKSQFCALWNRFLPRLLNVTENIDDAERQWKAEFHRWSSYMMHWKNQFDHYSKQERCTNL
structure (smiles),measurement,value
"c1ccc2c(NCCCCCCCNc3c4c(nc5ccccc35)CCCC4)c3c(nc2c1)CCCC3 [bis(7)-tacrine, 1,7-N-heptylene-bis-9,9'-amino-1,2,3,4-tetrahydro-acridinium dihydrochloride]",Ki,2.9 ± 0.4 pM
